Test results: US20140171404A1, “Autotaxin inhibitors” (NOVARTIS AG, priority 2012, published 2014)
Read-outs that look alike come from different tables or passages of the source. Blank lines part the entries; values can stand above or below the molecule they belong to.

Target: T1, Recombinant human ATX (Homo sapiens, UniProt Q13822)
T1 construct: made in house; host or cells: human embryonic kidney (HEK) cells
Assay: Assessing ATX inhibition: released choline, Amplex Red fluorescence
Format: biochemical
Method: LPC (oleoyl (18:1)) was purchased from Avanti Polar Lipids (Alabaster; AL) and solubilized in methanol to 20 mM. Amplex Red was obtained from Invitrogen Life Technologies (Paisley, UK) and dissolved in DMSO to 10 mM. Choline oxidase and horseradish peroxidase (HRP) were obtained from Sigma Aldrich (Dorset, UK) and dissolved in HBSS to 20 U/ml and 200 U/ml respectively. All reagents were stored at −20° C. in single use aliquots. All experimental measurements were performed in assay buffer made up immediately prior to use (HBSS, 0.01% BSA essentially fatty acid free).
Recombinant human ATX was prepared at Novartis (Basel, CH) in a human embryonic kidney (HEK) cell preparation, and stored in single use aliquots of […] (26 μM) stocks stored at −80° C.
All experimental measurements were performed in black 384 well polystyrene (low volume, round bottom, Corning (3676)) plates. PerkinElmer EnVision (Fluorescence Intensity/Absorbance Monochromator) or Tecan Infinite 200 PRO series plate reader was used to detect change in fluorescent intensity.
ATX activity was determined by measurement of released choline in reactions containing ATX (10 nM), choline oxidase (0.1 U/ml), HRP (100 U/ml), amplex red (50 μM) and LPC 18:1 (10 μM). Compounds of the invention were prepared as 10 point serial dilutions from 1 μM in duplicate and pre-incubated with ATX at 37° C. for 20 minutes prior to the addition of remaining reagents. The liberated choline was measured from changes in fluorescence intensity (λex 530 nm, λem 590 nm) of the product resurofin at 37° C. every 2 minutes over a 40-minute period. ATX activity was measured as a slope of the linear portion of the progress curve, typically between 14 to 24 minutes.
Slope data was exported to Graphpad prism (Graphpad software, San Diego, Calif.) where data was fitted to equation 1.
Y=Bottom+(Top−Bottom)/(1+10̂((Log IC50−X)*HillSlope)) Equation 1: […]

[1] = ATX 10 nM, LPC 18:1 10 μM, pre-incubated with ATX at 37° C. for 20 minutes, Table 1, exemplified compounds, read-out: IC50

SMILES: CCOc1c(NCCC2CN(C(=O)OCc3cc(Cl)cc(Cl)c3)CCO2)c(=O)c1=O (stereo not drawn) [Example 11, 3,5-Dichlorobenzyl 2-(2-((2-ethoxy-3,4-dioxocyclobut-1-en-1-yl)amino)ethyl)morpholine-4-carboxylate]
IC50 [1]: 51 nM

SMILES: O=C(CCCc1c[nH]nn1)NC1CCN(C(=O)CCc2ccc(C(F)(F)F)cc2)CC1 [Example 54, 4-(1H-1,2,3-Triazol-4-yl)-N-(1-(3-(4-(trifluoromethyl)phenyl)propanoyl)piperidin-4-yl)butanamide]
IC50 [1]: 87 nM

SMILES: O=C(O)CCCCC(=O)NC1CCN(C(=O)OCc2cc(Cl)cc(Cl)c2)CC1 [Example 10, 6-((1-(((3,5-Dichlorobenzyl)oxy)carbonyl)piperidin-4-yl)amino)-6-oxohexanoic acid]
IC50 [1]: 543 nM

SMILES: O=C(CCc1cc(O)no1)NC1CCN(C(=O)OCc2cc(Cl)cc(Cl)c2)CC1 [Example 23, 3,5-Dichlorobenzyl 4-(3-(3-hydroxyisoxazol-5-yl)propanamido)piperidine-1-carboxylate]
IC50 [1]: 396 nM

SMILES: N#Cc1cc(COC(=O)N2CCC(NC(=O)CCCc3c[nH]nn3)CC2)cc(Cl)c1Cl [Example 72, 3,4-Dichloro-5-cyanobenzyl 4-(4-(1H-1,2,3-triazol-4-yl)butanamido)piperidine-1-carboxylate]
IC50 [1]: 7 nM

SMILES: CN(CCCN1CCN(C(=O)OCc2cc(Cl)cc(Cl)c2)CC1)C(=O)c1c[nH]c(=O)o1 [Example 26, 3,5-Dichlorobenzyl 4-(3-(N-methyl-2-oxo-2,3-dihydrooxazole-5-carboxamido)propyl)piperazine-1-carboxylate]
IC50 [1]: 156 nM

SMILES: O=C(/C=C/c1c[nH]cn1)NC1CCN(C(=O)OCc2cc(Cl)cc(Cl)c2)CC1 [Example 9, (E)-3,5-Dichlorobenzyl 4-(3-(1H-imidazol-4-yl)acrylamido)piperidine-1-carboxylate]
IC50 [1]: 109 nM

SMILES: O=C(NC1CCCN(C(=O)CCCc2c[nH]nn2)CC1)OCc1cc(Cl)cc(Cl)c1 (stereo not drawn) [Example 48, 3,5-Dichlorobenzyl (1-(4-(1H-1,2,3-triazol-4-yl)butanoyl)azepan-4-yl)carbamate]
IC50 [1]: 791 nM

SMILES: Cc1cc(C)cc(COC(=O)N2CCC(NC(=O)CCCc3c[nH]nn3)CC2)c1 [Example 51, 3,5-Dimethyl benzyl 4-(4-(1H-1,2,3-triazol-4-yl)butanamido)piperidine-1-carboxylate]
IC50 [1]: 6 nM

SMILES: CN(CCC1CN(C(=O)OCc2cc(Cl)cc(Cl)c2)CCO1)C(=O)c1c[nH]c(=O)o1 (stereo not drawn) [Example 13, 3,5-Dichlorobenzyl 2-(2-(N-methyl-2-oxo-2,3-dihydrooxazole-5-carboxamido)ethyl)morpholine-4-carboxylate]
IC50 [1]: 828 nM

SMILES: CCOc1c(N(C)CCC2CN(C(=O)OCc3cc(Cl)cc(Cl)c3)CCO2)c(=O)c1=O (stereo not drawn) [Example 14, 3,5-Dichlorobenzyl 2-(2-((2-ethoxy-3,4-dioxocyclobut-1-en-1-yl)(methyl)amino)ethyl)morpholine-4-carboxylate]
IC50 [1]: 540 nM

SMILES: N#Cc1cc(Cl)cc(COC(=O)N2CCC(CCCCCc3c[nH]nn3)CC2)c1 [Example 69, 3-Chloro-5-cyanobenzyl 4-(5-(1H-1,2,3-triazol-4-yl)pentyl)piperidine-1-carboxylate]
IC50 [1]: 69 nM

SMILES: O=C(NC1CC2CCC(C1)N2C(=O)CCCc1c[nH]nn1)OCc1cc(Cl)cc(Cl)c1 (stereo not drawn) [Example 47, 3,5-Dichlorobenzyl (8-(4-(1H-1,2,3-triazol-4-yl)butanoyl)-8-azabicyclo[3.2.1]octan-3-yl)carbamate]
IC50: 3160 nM

SMILES: Cc1cc(COC(=O)N2CCC(NC(=O)CCCc3c[nH]nn3)CC2)cc(C(F)(F)F)c1 [Example 62, 3-Methyl-5-(trifluoromethyl)benzyl 4-(4-(1H-1,2,3-triazol-4-yl)butanamido)piperidine-1-carboxylate]
IC50 [1]: 5 nM

SMILES: O=C(NC1CCN(C(=O)CCCCc2c[nH]nn2)CC1)OCc1cc(Cl)cc(Cl)c1 [Example 52, 3,5-Dichlorobenzyl (1-(5-(1H-1,2,3-triazol-4-yl)pentanoyl)piperidin-4-yl)carbamate]
IC50 [1]: 42 nM

SMILES: CC1CC(CNC(=O)CCc2cc(O)no2)CCN1C(=O)OCc1cc(Cl)cc(Cl)c1 (stereo not drawn) [Example 5]
IC50 [1]: 313 nM

SMILES: O=C(CCCc1c[nH]nn1)NC1CCN(C(=O)OCc2ccc(Cl)cc2Cl)CC1 [Example 58, 2,4-Dichlorobenzyl 4-(4-(1H-1,2,3-triazol-4-yl)butanamido)piperidine-1-carboxylate]
IC50 [1]: 206 nM

SMILES: O=C(/C=C/c1c[nH]cn1)N1CCN(C2CCN(C(=O)CCc3ccc(C(F)(F)F)cc3)CC2)CC1 [reference compound]
IC50 (same assay, compounds outside the scope of the invention, read-out: IC50): > 5500 nM

SMILES: O=C(CCCc1c[nH]nn1)NC1CCN(C(=O)OCc2ccc(C(F)(F)F)cc2)CC1 [Example 53, 4-(Trifluoromethyl)benzyl 4-(4-(1H-1,2,3-triazol-4-yl)butanamido)piperidine-1-carboxylate]
IC50 [1]: 40 nM

Further lines, results first:

IC50 [1]: 28 nM
SMILES: O=C(Cc1c[nH]nn1)NCCC1CCN(C(=O)OCc2cc(Cl)cc(Cl)c2)CC1 [Example 7, 3,5-Dichlorobenzyl 4-(2-(2-(1H-1,2,3-triazol-4-yl)acetamido)ethyl)piperidine-1-carboxylate]

IC50 [1]: 586 nM
SMILES: O=C(CCc1cc(O)no1)NCCC1CCN(C(=O)OCc2cc(Cl)cc(Cl)c2)CC1 [Example 22, 3,5-Dichlorobenzyl 4-(2-(3-(3-hydroxyisoxazol-5-yl)propanamido)ethyl)piperidine-1-carboxylate]

IC50 [1]: 318 nM
SMILES: O=C(OCc1cc(Cl)cc(Cl)c1)N1CCC(CCCCCc2c[nH]nn2)CC1 [Example 68, 3,5-Dichlorobenzyl 4-(5-(1H-1,2,3-triazol-4-yl)pentyl)piperidine-1-carboxylate]

IC50 [1]: 106 nM
SMILES: O=C(NCCC1CCN(C(=O)OCc2cc(Cl)cc(Cl)c2)CC1)c1c[nH]c(=O)o1 [Example 21, 3,5-Dichlorobenzyl 4-(2-(2-oxo-2,3-dihydrooxazole-5-carboxamido)ethyl)piperidine-1-carboxylate]

IC50 [1]: 29 nM
SMILES: CN(CCC1CCN(C(=O)OCc2cc(Cl)cc(Cl)c2)CC1)C(=O)c1c[nH]c(=O)s1 [Example 15, 3,5-Dichlorobenzyl 4-(2-(N-methyl-2-oxo-2,3-dihydrothiazole-5-carboxamido)ethyl)piperidine-1-carboxylate]

IC50 [1]: 360 nM
SMILES: Cc1oc(=O)[nH]c1C(=O)N(C)CCC1CCN(C(=O)OCc2cc(Cl)cc(Cl)c2)CC1 [Example 8, 3,5-Dichlorobenzyl 4-(2-(N,5-dimethyl-2-oxo-2,3-dihydrooxazole-4-carboxamido)ethyl)piperidine-1-carboxylate]

IC50 [1]: 18 nM
SMILES: O=C(CCCc1cnn[nH]1)NCC1CCN(C(=O)OCc2cc(Cl)cc(Cl)c2)CC1 [Example 41, 3,5-Dichlorobenzyl 4-((4-(1H-1,2,3-triazol-5-yl)butanamido)methyl)piperidine-1-carboxylate]

IC50 [1]: 596 nM
SMILES: O=C(NCCC1CCN(C(=O)OCc2cc(Cl)cc(Cl)c2)CC1)c1nn[nH]n1 [Example 16, 3,5-Dichlorobenzyl 4-(2-(2H-tetrazole-5-carboxamido)ethyl)piperidine-1-carboxylate]

IC50 [1]: 17 nM
SMILES: O=C(CCc1cnn[nH]1)NCC1CCN(C(=O)OCc2cc(Cl)cc(Cl)c2)CC1 [Example 57, 3,5-Dichlorobenzyl 4-((3-(1H-1,2,3-triazol-5-yl)propanamido)methyl)piperidine-1-carboxylate]

IC50 [1]: 786 nM
SMILES: CN(CCC1CCN(C(=O)OCc2cc(Cl)cc(Cl)c2)CC1)C(=O)c1noc(=O)[nH]1 [Example 28, 3,5-Dichlorobenzyl 4-(2-(N-methyl-5-oxo-4,5-dihydro-1,2,4-oxadiazole-3-carboxamido)ethyl)piperidine-1-carboxylate]

IC50 [1]: 2 nM
SMILES: O=C(CCCc1c[nH]nn1)NC1CCN(C(=O)OCc2cc(Cl)cc(Cl)c2)CC1 [Example 17, 3,5-Dichlorobenzyl 4-(4-(1H-1,2,3-triazol-4-yl)butanamido)piperidine-1-carboxylate]

IC50 [1]: 541 nM
SMILES: CN(CCC1CCN(C(=O)OCc2cc(Cl)cc(Cl)c2)CC1)C(=O)c1nn[nH]n1 [Example 29, 3,5-Dichlorobenzyl 4-(2-(N-methyl-2H-tetrazole-5-carboxamido)ethyl)piperidine-1-carboxylate]

IC50 [1]: 7 nM
SMILES: O=C(CCC1CCN(C(=O)OCc2cc(Cl)cc(Cl)c2)CC1)NCc1c[nH]nn1 [Example 60, 3,5-Dichlorobenzyl 4-(3-(((1H-1,2,3-triazol-4-yl)methyl)amino)-3-oxopropyl)piperidine-1-carboxylate]

IC50 [1]: 94 nM
SMILES: CN(C(=O)CCCc1c[nH]nn1)C1CCN(C(=O)OCc2cc(Cl)cc(Cl)c2)CC1 [Example 18, 3,5-Dichlorobenzyl 4-(N-methyl-4-(1H-1,2,3-triazol-4-yl)butanamido)piperidine-1-carboxylate]
